The target of test [1] is monkey NPR1 (Macaca fascicularis, UniProt A0A7N9DBT9). The experiment in a line: Cellular cGMP production assay, monkey NPR1 expressing CHO-K1 cells (CisBio HTRF). In kind it is cell-based. To be noted: for Monkey NPR1 Amax (% of ANP): maximum cGMP production as percentage of the maximum cGMP produced with ANP. Summed up:
(§1)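 Cells receive IBMX (1 mM) assay buffer plus test compound over twelve threefold dilutions starting at 30 μM, and cGMP accumulates for 30 min at 37 °C. Lysates are then incubated one hour at room temperature with d2-labelled cGMP and cryptate-labelled antibody before time-resolved fluorescence reading.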
Background: In TR-FRET formats the signal depends on donor and acceptor labels being close together.

Test [2] has as its target T1, human NPR1 (Homo sapiens, UniProt P16066).
T1 construct: host or cells: CHO-K1
T1 sequence (P16066 33-1061): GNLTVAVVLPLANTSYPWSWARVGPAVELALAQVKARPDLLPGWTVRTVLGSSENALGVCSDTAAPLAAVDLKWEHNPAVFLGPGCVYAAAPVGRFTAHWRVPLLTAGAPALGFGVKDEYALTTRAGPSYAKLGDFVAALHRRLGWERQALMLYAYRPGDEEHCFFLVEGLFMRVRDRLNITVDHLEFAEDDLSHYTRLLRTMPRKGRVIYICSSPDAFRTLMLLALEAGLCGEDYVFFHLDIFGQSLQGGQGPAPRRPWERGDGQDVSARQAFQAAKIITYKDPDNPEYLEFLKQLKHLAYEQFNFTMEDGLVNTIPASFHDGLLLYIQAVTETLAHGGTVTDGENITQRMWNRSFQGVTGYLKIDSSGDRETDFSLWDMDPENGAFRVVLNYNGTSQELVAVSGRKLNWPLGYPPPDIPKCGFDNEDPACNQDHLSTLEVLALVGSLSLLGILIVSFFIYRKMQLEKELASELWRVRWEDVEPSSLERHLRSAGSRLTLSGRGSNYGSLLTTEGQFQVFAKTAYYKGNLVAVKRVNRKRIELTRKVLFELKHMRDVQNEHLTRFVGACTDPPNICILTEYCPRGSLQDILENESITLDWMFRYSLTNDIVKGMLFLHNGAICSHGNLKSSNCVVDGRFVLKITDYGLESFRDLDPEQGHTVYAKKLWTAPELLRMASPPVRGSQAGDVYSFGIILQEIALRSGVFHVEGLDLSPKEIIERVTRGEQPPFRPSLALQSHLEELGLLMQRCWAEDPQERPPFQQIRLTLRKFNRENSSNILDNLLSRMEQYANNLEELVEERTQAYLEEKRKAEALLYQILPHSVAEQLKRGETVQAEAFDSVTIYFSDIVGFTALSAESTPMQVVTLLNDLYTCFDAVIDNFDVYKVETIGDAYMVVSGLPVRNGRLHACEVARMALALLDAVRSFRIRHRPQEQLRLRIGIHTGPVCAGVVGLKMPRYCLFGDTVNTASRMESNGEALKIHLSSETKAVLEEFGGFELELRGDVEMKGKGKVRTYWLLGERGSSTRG
The experiment in a line: Cellular cGMP production assay, human NPR1 expressing CHO-K1 cells (CisBio HTRF). To be noted: for AC50: cGMP production, 30 min at 37° C., 12-point dose-response from 30 μM; for Human NPR1 Amax (% of ANP): maximum cGMP production as percentage of the maximum cGMP produced with ANP. The format is cell-based. Summed up: as §1

[3] abbreviates: cGMP production, monkey NPR1 CHO-K1 cells, 30 min at 37° C., 12-point dose-response from 30 μM, read-out: Monkey NPR1 AC50.

The values below come from patent US12129246B1, “Hydroquinazoline derivatives for the treatment of a disease or disorder” (Novartis AG, priority 2023, dated 2024).

SMILES strings stand for the structures. Where two headings read alike, the source gives them in different places.

A word on the AC50: it is the concentration at which the activity in the assay is half-maximal.

Sequence of monkey NPR1 (A0A7N9DBT9 entry or part of it): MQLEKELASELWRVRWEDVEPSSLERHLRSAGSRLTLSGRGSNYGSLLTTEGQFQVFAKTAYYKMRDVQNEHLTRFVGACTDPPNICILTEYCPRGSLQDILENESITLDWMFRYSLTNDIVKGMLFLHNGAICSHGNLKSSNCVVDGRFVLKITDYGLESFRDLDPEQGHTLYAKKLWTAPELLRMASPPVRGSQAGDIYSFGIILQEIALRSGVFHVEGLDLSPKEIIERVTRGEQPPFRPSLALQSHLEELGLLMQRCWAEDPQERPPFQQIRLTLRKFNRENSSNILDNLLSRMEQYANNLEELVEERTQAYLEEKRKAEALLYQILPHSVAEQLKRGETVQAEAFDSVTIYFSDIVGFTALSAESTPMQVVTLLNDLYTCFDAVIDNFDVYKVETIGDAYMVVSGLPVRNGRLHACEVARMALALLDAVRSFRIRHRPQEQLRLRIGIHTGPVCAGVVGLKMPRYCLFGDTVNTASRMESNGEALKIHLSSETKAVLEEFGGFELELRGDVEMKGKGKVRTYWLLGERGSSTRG

In the case of `CC[C@H]([C@H]1CC[C@H](C(=O)O)CC1)N(C)c1nc2c(c(N[C@@H](CN3CCC4CC4C3)c3cnn(C)c3)n1)C[C@H](c1ccccc1)CC2` (stereo partly drawn) [Compound 78, (1R,4r)-4-((1R)-1-(((6R)-4-(((1R)-2-(3-azabicyclo[4.1.0]heptan-3-yl)-1-(1-methyl-1H-pyrazol-4-yl)ethyl)amino)-6-phenyl-5,6,7,8-tetrahydroquinazolin-2-yl)(methyl)amino)propyl)cyclohexane-1-carboxylic acid], the AC50 in test [1] (setting [3]) amounted to 212 nM; in test [2], 254 nM. Besides, the “Monkey NPR1 Amax (% of ANP)” value in test [1] (monkey NPR1 CHO-K1 cells) is given as 102.158 % of ANP. Further, in test [2], the “Human NPR1 Amax (% of ANP)” value is listed as 99.406 % of ANP.

In the case of `CC[C@H]([C@H]1CC[C@H](C(=O)O)CC1)N(C)c1nc2c(c(N[C@@H](CN3C4CCCC3CC(O)C4)c3cnn(CC)c3)n1)C[C@H](c1cccc(F)c1)CC2` (stereo partly drawn) [Compound 79, (1R,4r)-4-((1R)-1-(((6R)-4-(((1R)-1-(1-ethyl-1H-pyrazol-4-yl)-2-((1R,5S)-3-hydroxy-9-azabicyclo[3.3.1]nonan-9-yl)ethyl)amino)-6-(3-fluorophenyl)-5,6,7,8-tetrahydroquinazolin-2-yl)(methyl)amino)propyl)cyclohexane-1-carboxylic acid], the concentration at half-maximal activity (AC50) in test [1] is 327 nM; in test [2] it was 257 nM. Also, in test [1] (monkey NPR1 CHO-K1 cells), the “Monkey NPR1 Amax (% of ANP)” value was 104.610 % of ANP. In test [2], the “Human NPR1 Amax (% of ANP)” value is given as 101.351 % of ANP.

Consider `CC[C@H]([C@H]1CC[C@H](C(=O)O)CC1)N(C)c1nc2c(c(N[C@@H](CN3C4CCCC3CC4)c3cnn(C)c3)n1)CN(c1ccc(F)cc1)CC2` [Compound 80, (1R,4r)-4-((1R)-1-((4-(((1R)-2-(8-azabicyclo[3.2.1]octan-8-yl)-1-(1-methyl-1H-pyrazol-4-yl)ethyl)amino)-6-(4-fluorophenyl)-5,6,7,8-tetrahydropyrido[4,3-d]pyrimidin-2-yl)(methyl)amino)propyl)cyclohexane-1-carboxylic acid], for which the concentration at half-maximal activity (AC50) in test [1] is 137 nM. For the same compound, in test [1] (monkey NPR1 CHO-K1 cells), the “Monkey NPR1 Amax (% of ANP)” value is 102.546 % of ANP. In test [2], the half-maximal activity concentration (AC50) turned out to be 267 nM and the “Human NPR1 Amax (% of ANP)” value was 94.876 % of ANP.

For the compound `CC[C@H]([C@H]1CC[C@H](C(=O)O)CC1)N(C)c1nc2c(c(N[C@@H](CN3C4CCCC3CC4)c3cnc(C)s3)n1)C[C@H](c1cccc(F)c1)CC2` [Compound 81, (1R,4r)-4-((1R)-1-(((6R)-4-(((1S)-2-(8-azabicyclo[3.2.1]octan-8-yl)-1-(2-methylthiazol-5-yl)ethyl)amino)-6-(3-fluorophenyl)-5,6,7,8-tetrahydroquinazolin-2-yl)(methyl)amino)propyl)cyclohexane-1-carboxylic acid], the AC50 in test [1] was 175 nM; in test [2], 271 nM. For the same compound, the “Monkey NPR1 Amax (% of ANP)” value in test [1] (monkey NPR1 CHO-K1 cells) is recorded as 100.863 % of ANP. The “Human NPR1 Amax (% of ANP)” value in test [2] is reported as 101.636 % of ANP.

As to `CC[C@H]([C@H]1CC[C@](F)(C(=O)O)CC1)N(C)c1nc2c(c(N[C@H](CN3CCC[C@H](C)C3)c3cnn(C)c3)n1)C[C@H](c1ccccc1)CC2` [Compound 82, (1S,4s)-1-fluoro-4-((R)-1-(methyl((R)-4-(((S)-1-(1-methyl-1H-pyrazol-4-yl)-2-((S)-3-methylpiperidin-1-yl)ethyl)amino)-6-phenyl-5,6,7,8-tetrahydroquinazolin-2-yl)amino)propyl)cyclohexane-1-carboxylic acid], the half-maximal activity concentration (AC50) in test [1] (setting [3]) turned out to be 278 nM. For the same compound, the “Monkey NPR1 Amax (% of ANP)” value in test [1] (monkey NPR1 CHO-K1 cells) is recorded as 106.556 % of ANP. In test [2], half-maximal activity (AC50) was put at 272 nM and the “Human NPR1 Amax (% of ANP)” value is listed as 96.493 % of ANP.

As to `CC[C@H]([C@H]1CC[C@H](C(=O)O)CC1)N(C)c1nc2c(c(N[C@@H](CN3CCC[C@H](COC)C3)c3cnn(C)c3)n1)C[C@H](c1ccccc1)CC2` [Compound 83, (1R,4r)-4-((R)-1-(((R)-4-(((R)-2-((S)-3-(methoxymethyl)piperidin-1-yl)-1-(1-methyl-1H-pyrazol-4-yl)ethyl)amino)-6-phenyl-5,6,7,8-tetrahydroquinazolin-2-yl)(methyl)amino)propyl)cyclohexane-1-carboxylic acid], the half-maximal activity concentration (AC50) in test [1] (setting [3]) turned out to be 173 nM. Moreover, in test [1] (monkey NPR1 CHO-K1 cells), the “Monkey NPR1 Amax (% of ANP)” value was 98.205 % of ANP. Moreover, in test [2], the AC50 stood at 282 nM and the “Human NPR1 Amax (% of ANP)” value is recorded as 98.117 % of ANP.

As to `CC[C@@H](Nc1nc2c(c(N[C@@H](CN3CCC[C@@H](C)C3)c3cnn(C)c3)n1)C[C@H](c1ccccc1)CC2)[C@H]1CC[C@H](C(=O)O)CC1` [Compound 84, (1R,4r)-4-((R)-1-(((R)-4-(((R)-1-(1-methyl-1H-pyrazol-4-yl)-2-((R)-3-methylpiperidin-1-yl)ethyl)amino)-6-phenyl-5,6,7,8-tetrahydroquinazolin-2-yl)amino)propyl)cyclohexane-1-carboxylic acid], the AC50 in test [1] (setting [3]) amounted to 191 nM. Further, in test [1] (monkey NPR1 CHO-K1 cells), the “Monkey NPR1 Amax (% of ANP)” value was 102.883 % of ANP. In test [2], the AC50 came to 284 nM and the “Human NPR1 Amax (% of ANP)” value was 100.223 % of ANP.

`CC[C@@H](Nc1nc2c(c(N[C@@H](CN3CCCC3)c3ccccc3)n1)C[C@H](c1ccccc1)CC2)[C@H]1CC[C@H](C(=O)O)CC1` [Compound 85, (1R,4r)-4-((R)-1-(((R)-6-phenyl-4-(((R)-1-phenyl-2-(pyrrolidin-1-yl)ethyl)amino)-5,6,7,8-tetrahydroquinazolin-2-yl)amino)propyl)cyclohexane-1-carboxylic acid]: the AC50 in test [1] (setting [3]) was determined as 238 nM. Moreover, the “Monkey NPR1 Amax (% of ANP)” value in test [1] (monkey NPR1 CHO-K1 cells) was 95.638 % of ANP. Further, in test [2], the activity was half-maximal at 285 nM (AC50) and the “Human NPR1 Amax (% of ANP)” value is reported as 102.461 % of ANP.

For the compound `CC[C@@H](Nc1nc2c(c(N[C@@H](CN3CC4CCC3C4)c3ccc(F)cc3)n1)C[C@H](c1ccccc1)CC2)[C@H]1CC[C@H](C(=O)O)CC1` (stereo partly drawn) [Compound 86, (1R,4r)-4-((1R)-1-(((6R)-4-(((1R)-2-(2-azabicyclo[2.2.1]heptan-2-yl)-1-(4-fluorophenyl)ethyl)amino)-6-phenyl-5,6,7,8-tetrahydroquinazolin-2-yl)amino)propyl)cyclohexane-1-carboxylic acid], the concentration at half-maximal activity (AC50) turned out to be 192 nM in test [1] (setting [3]) and 286 nM in test [2]. The “Monkey NPR1 Amax (% of ANP)” value in test [1] (monkey NPR1 CHO-K1 cells) is given as 92.318 % of ANP. Also, in test [2], the “Human NPR1 Amax (% of ANP)” value is listed as 101.050 % of ANP.

As to `CC[C@H]([C@H]1CC[C@H](C(=O)O)CC1)N(C)c1nc2c(c(N[C@@H](CN3CCC[C@H](CF)C3)c3cnn(C)c3)n1)C[C@H](c1ccccc1)CC2` [Compound 87, (1R,4r)-4-((R)-1-(((R)-4-(((R)-2-((S)-3-(fluoromethyl)piperidin-1-yl)-1-(1-methyl-1H-pyrazol-4-yl)ethyl)amino)-6-phenyl-5,6,7,8-tetrahydroquinazolin-2-yl)(methyl)amino)propyl)cyclohexane-1-carboxylic acid], the half-maximal activity concentration (AC50) in test [1] (setting [3]) turned out to be 235 nM. Further, the “Monkey NPR1 Amax (% of ANP)” value in test [1] (monkey NPR1 CHO-K1 cells) is on record as 100.104 % of ANP. In test [2], the activity was half-maximal at 292 nM (AC50) and the “Human NPR1 Amax (% of ANP)” value is recorded as 93.715 % of ANP.

As for `CC[C@H]([C@H]1CC[C@H](C(=O)O)CC1)N(C)c1nc2c(c(N[C@@H](CN3C4CCCC3CC4)c3cc(C)n(C)n3)n1)C[C@H](c1cccc(F)c1)CC2` [Compound 88, (1R,4r)-4-((1R)-1-(((6R)-4-(((1S)-2-(8-azabicyclo[3.2.1]octan-8-yl)-1-(1,5-dimethyl-1H-pyrazol-3-yl)ethyl)amino)-6-(3-fluorophenyl)-5,6,7,8-tetrahydroquinazolin-2-yl)(methyl)amino)propyl)cyclohexane-1-carboxylic acid], the AC50 in test [1] was 255 nM; in test [2] it was 303 nM. In addition, in test [1] (monkey NPR1 CHO-K1 cells), the “Monkey NPR1 Amax (% of ANP)” value is reported as 94.699 % of ANP. The “Human NPR1 Amax (% of ANP)” value in test [2] is on record as 98.817 % of ANP.
